Measurements from US20110034551A1, “METHODS OF INCREASING SARCOSINE LEVELS FOR TREATING SCHIZOPHRENIA” (BG MEDICINE, INC., priority 2007, published 2011).

How the values were obtained:
plasma sarcosine = experiment: 28-day oral dosing study in rats, plasma sarcosine abundance by Polar LC/MS and GC/MS; type: in vivo, rat; details: 300 mg/kg daily oral, end of 28-day treatment
Excerpt: Fenofibrate (Sigma F-6020, Lot. 064K1584) and MPC-1 (Mitsubishi Pharma Corporation, Lot. F) were used in this study. These test substances were stored at room temperature.
Seventy-three male Crj:CD(SD)IGS rats (4.5 weeks old) were quarantined and acclimated for seven days after receipt. Two days before the initiation of dosing (Day −2), rats which had no abnormalities in clinical observation and body weight during the quarantine and acclimation period were selected and assigned to 5 groups using the stratified-by-weight randomization method to yield approximately the same mean body weights amongst the study groups.
The rats were dosed by oral gavage using a disposable stomach tube connecting to a syringe, at the dose volume of 5 mL/kg. The dosing was conducted once daily for 28 days. A control group was dosed with the vehicle only. Individual doses were calculated based on the most recently recorded body weights.
Preparation of dosing suspensions was as follows. The specified amount of test substance for each dose level was weighed and crushed with an agate mortar and a pestle. […]
Based on the total number of samples, the batches of samples were set up according to a batching scheme. Each sample was analyzed in duplicate. […] Each batch is analyzed in one analytical run. […]
All compounds eluting from the GC/MS column were detected in full scan mode. […]

schizophrenia = details: 2 g/day as add-on therapy to certain antipsychotics (but not clozapine), schizophrenia patients; cited from earlier work
glycine transport = details: other studies; read-out: IC50 for inhibition of glycine transport; cited from earlier work
[1] = target: T1, type 1 glycine transporter, GLYT1 (Rattus norvegicus, UniProt P28572); details: rat brain aggregates; Atkinson, et al. 2001; read-out: IC50 for inhibition of glycine transport; cited from earlier work
T1 construct: glycine transport in rat brain aggregates; host or cells: rat brain aggregates (endogenous protein)
T1 sequence (P28572 1-638): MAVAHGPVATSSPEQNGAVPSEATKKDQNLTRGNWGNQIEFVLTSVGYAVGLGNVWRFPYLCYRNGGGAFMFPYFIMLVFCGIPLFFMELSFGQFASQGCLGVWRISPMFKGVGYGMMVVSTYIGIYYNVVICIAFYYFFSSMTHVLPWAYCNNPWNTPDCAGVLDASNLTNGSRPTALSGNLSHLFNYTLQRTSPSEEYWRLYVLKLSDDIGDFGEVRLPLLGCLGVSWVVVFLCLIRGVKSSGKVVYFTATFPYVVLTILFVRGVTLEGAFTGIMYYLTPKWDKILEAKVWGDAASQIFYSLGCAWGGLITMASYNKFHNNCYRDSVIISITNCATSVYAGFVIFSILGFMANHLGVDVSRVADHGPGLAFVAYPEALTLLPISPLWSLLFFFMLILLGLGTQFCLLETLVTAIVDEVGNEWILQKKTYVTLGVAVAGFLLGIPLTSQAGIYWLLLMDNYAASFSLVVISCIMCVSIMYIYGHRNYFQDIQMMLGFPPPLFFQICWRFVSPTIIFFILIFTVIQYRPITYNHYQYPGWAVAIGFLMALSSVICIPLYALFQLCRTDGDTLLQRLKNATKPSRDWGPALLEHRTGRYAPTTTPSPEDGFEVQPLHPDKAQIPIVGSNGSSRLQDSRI

Row | Structure (SMILES) | median fold change in plasma sarcosine abundance relative to vehicle (plasma sarcosine; GC/MS platform) | median fold change in plasma sarcosine abundance relative to vehicle (plasma sarcosine; Polar LC/MS platform) | effect on symptoms of schizophrenia (schizophrenia) | IC50 (glycine transport) | IC50 [1]
1 | CC(C)OC(=O)C(C)(C)Oc1ccc(C(=O)c2ccc(Cl)cc2)cc1 [fenofibrate] | 3.74 | 4.25 | – | – | –
2 | CNCC(=O)O [sarcosine, N-methylglycine] | – | – | additional reductions in both positive and negative symptomatology | ~100 µM | 13 µM
